{"source": "paper PMC10159843", "about": "“Babesia duncani multi-omics identifies virulence factors and drug targets” (Nature Microbiology, 2023)", "key": {"[1]": {"system": "B. duncani", "assay": "microbe, parasite or virus in culture", "assay_type": "cell-based, Babesia duncani"}, "[2]": {"system": "B. duncani", "conditions": "continuous in vitro culture in human erythrocytes; cited from earlier work"}, "[3]": {"target": "B. microti DHFR-TS (Babesia microti, UniProt A0A1R4AAV1)", "sequence (A0A1R4AAV1 1-502)": "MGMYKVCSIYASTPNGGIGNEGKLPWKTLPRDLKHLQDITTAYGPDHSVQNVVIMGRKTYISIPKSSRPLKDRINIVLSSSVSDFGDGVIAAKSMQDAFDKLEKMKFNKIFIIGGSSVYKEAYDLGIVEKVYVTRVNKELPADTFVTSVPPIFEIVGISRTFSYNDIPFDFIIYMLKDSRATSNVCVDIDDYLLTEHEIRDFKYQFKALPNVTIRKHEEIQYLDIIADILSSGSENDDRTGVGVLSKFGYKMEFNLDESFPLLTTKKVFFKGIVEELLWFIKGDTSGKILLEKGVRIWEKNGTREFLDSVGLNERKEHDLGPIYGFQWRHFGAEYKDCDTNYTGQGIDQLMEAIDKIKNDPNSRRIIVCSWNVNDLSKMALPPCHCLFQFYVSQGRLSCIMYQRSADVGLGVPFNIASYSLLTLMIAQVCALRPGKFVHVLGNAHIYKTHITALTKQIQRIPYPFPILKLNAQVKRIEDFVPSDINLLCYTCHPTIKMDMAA", "assay_type": "biochemical"}, "[4]": {"target": "B. duncani DHFR-TS (Babesia duncani, UniProt A0AAD9UQZ8)", "sequence (A0AAD9UQZ8 1-514)": "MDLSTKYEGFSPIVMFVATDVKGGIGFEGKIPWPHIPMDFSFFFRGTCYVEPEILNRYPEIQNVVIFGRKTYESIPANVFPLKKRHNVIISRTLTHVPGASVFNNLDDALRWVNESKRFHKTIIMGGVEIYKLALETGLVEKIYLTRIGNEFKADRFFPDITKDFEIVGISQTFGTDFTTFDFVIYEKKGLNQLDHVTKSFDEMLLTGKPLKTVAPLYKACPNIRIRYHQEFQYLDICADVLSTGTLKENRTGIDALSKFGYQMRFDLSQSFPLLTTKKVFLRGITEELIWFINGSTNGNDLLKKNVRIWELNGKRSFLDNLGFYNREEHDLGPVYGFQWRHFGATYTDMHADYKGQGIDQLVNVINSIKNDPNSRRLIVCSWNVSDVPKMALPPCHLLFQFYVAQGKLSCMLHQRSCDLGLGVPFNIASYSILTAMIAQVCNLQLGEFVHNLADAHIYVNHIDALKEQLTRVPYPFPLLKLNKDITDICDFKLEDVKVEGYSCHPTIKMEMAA", "assay_type": "biochemical"}, "[5]": {"assay": "MTT cytotoxicity on HepG2 cells", "assay_type": "cell-based, human", "conditions": "human, HepG2 cells, read-out: HepG2 LC50", "protocol": "(§1) HeLa, HepG2, HEK and HCT116 cell lines were obtained from the American Type Culture Collection and maintained in Dulbecco’s modified Eagle’s medium (Invitrogen 11995-065) containing 25 mM glucose, 1 mM sodium pyruvate and supplemented with 5 mM HEPES, 10% FBS and penicillin-streptomycin (50 U ml^−1 penicillin, 50 µg ml^−1 streptomycin). An estimated 20,000 cells per well were seeded in a 96-well tissue culture plate and allowed to adhere. After 24 h, cells were treated with either vehicle alone (0.1% dimethylsulfoxide) or vehicle containing different concentrations of the target drugs using a 2-fold serial dilution starting at 10 mM. Dimethylsulfoxide at 10% was used as a positive control. Cells were incubated at 37 °C for 72 h, after which each well was incubated with 0.5 mg ml^−1 of MTT reagent (Cayman Chemical, 10009591) for 4 h in the dark at 37 °C. Following addition of 100 µl dimethylsulfoxide to each well, absorbance was measured at optical density (OD)590 nm using Spectra max plate reader. From the obtained OD values, percent cell viability was calculated by normalizing to the mean of 10% dimethylsulfoxide wells (set as 100% toxicity) and the mean of the vehicle control wells (set as 0% toxicity). Dose-response curves were plotted using GraphPad Prism v9.1.2"}, "[6]": {"assay": "MTT cytotoxicity on HeLa cells", "assay_type": "cell-based, human", "conditions": "human, HeLa cells, read-out: HeLa LC50", "protocol": "as §1"}, "[7]": {"assay": "MTT cytotoxicity on HCT116 cells", "assay_type": "cell-based, human", "conditions": "human, HCT116 cells, read-out: HCT LC50", "protocol": "as §1"}, "[8]": {"assay": "MTT cytotoxicity on HEK293 cells", "assay_type": "cell-based, human", "conditions": "human, HEK293 cells, read-out: HEK293 LC50", "protocol": "as §1"}, "[9]": {"system": "HepG2", "assay": "MTT cytotoxicity on HepG2 cells", "assay_type": "cell-based, human", "conditions": "72 h, read-out: HepG2 LC50", "protocol": "as §1"}, "[10]": {"system": "human cell lines", "assay": "In vitro therapeutic index of antifolates against human cell lines", "assay_type": "cell-based", "conditions": "human cell lines versus B. duncani IC50", "protocol": "Drug efficacy against B. duncani in vitro was determined using the SYBR Green assay as previously described. Briefly, a culture of B. duncani-infected human erythrocytes at 0.1% parasitemia and 5% haematocrit was maintained for 60 h in vitro in a 96-well plate in the absence or presence of varying concentrations of the drug of interest at concentrations ranging between 0.6 nM and 10 µM. An equal volume of lysis buffer (0.008% saponin, 0.08% Triton X-100, 20 mM Tris-HCl (pH 7.5) and 5 mM EDTA) containing SYBR Green-I (0.01%) was added to each well and the plate incubated at 37 °C for 1 h in the dark. Fluorescence counts in each well were measured at 480 nm (excitation) and 540 nm (emission) using a BioTek Synergy Mx microplate reader and background fluorescence from control wells containing uninfected RBCs was subtracted. A dose-response curve representing the fluorescence counts against the logarithm of the drug concentration was fitted by nonlinear regression and used to determine the IC50 of each drug. Analysis was conducted using GraphPad Prism 9.2.1. For each drug, two independent experiments, each with biological triplicates, were conducted. Data are shown as mean ± s.d. […]"}, "[11]": {"system": "HeLa", "assay": "MTT cytotoxicity on HeLa cells", "assay_type": "cell-based, human", "conditions": "72 h, read-out: HeLa LC50", "protocol": "as §1"}, "[12]": {"system": "HCT116", "assay": "MTT cytotoxicity on HCT116 cells", "assay_type": "cell-based, human", "conditions": "72 h, read-out: HCT LC50", "protocol": "as §1"}, "[13]": {"system": "BdDHFR-TS", "assay": "Inhibition of DHFR enzymatic activity of recombinant BdDHFR-TS", "assay_type": "biochemical, B. duncani", "conditions": "0.1 μM enzyme, 300 μM DHF, 300 μM NADPH", "protocol": "(§2) The IC50 was determined from a sigmoidal dose-response curve using GraphPad Prism v9.1.2. […]\n(§3) denatured (2 X 20 min in 0.5N NaOH; 1.5 M NaCl) and neutralized (2 X 20 min in 0.5 M Tris-HCl, pH 7.5; 1.5 M NaCl). Southern blotting was done on nylon membrane, positively charged\n(§4) (Cat. No. 1417240, Roche) using 10X SSC and followed by UV crosslinking of transferred DNA.\n(§5) The membrane was hybridized overnight at 26 °C with the telomere probe and then washed twice for 5 min each in 2X SSC and for 20 min each in 0.5X SSC at 26°C. Bound probe was detected with disodium-2-chloro-5(4 methoxyspiro (1,2-dioxetane-3.2´-[5-chloro]tricycle[3.3.1.1.3.7] decan)-4-yl)-1-phenyl phosphate (CDP-StarTM, Cat. No.12041677001, Roche) according to the manufacturer’s instructions. The membrane was visualized using an Amersham ImageQuant 800 system (GE Healthcare Bio-Science AB, Uppsala, Sweden).\n(§6) Cloning, Expression, and Purification of recombinant B. duncani and B. microti DHFR-TS […]\n(§7) duncani (BdDHFR-TS) and B. microti (BmDHFR-TS) were cloned into pMAL-c4x by GenScript USA Inc. Both enzymes were expressed as fusion proteins with N’-terminal maltose-binding protein (MBP) tag. Constructs of pMAL-c4x-BdDHFR-TS and pMAL-c4x-BmDHFR-TS were transformed by heat shock into E. coli BL-21(DE3). E. coli BL-21(DE3) harboring pMAL-c4x-DHFR-TS was grown overnight in 2 ml LB ampicillin (100 µg/mL). […]"}, "[14]": {"system": "BmDHFR-TS", "assay": "Inhibition of DHFR enzymatic activity of recombinant BmDHFR-TS", "assay_type": "biochemical, B. microti", "conditions": "0.1 μM enzyme, 300 μM DHF, 300 μM NADPH", "protocol": "as §2, §3, §4, §5, §6, §7"}, "[15]": {"system": "HEK293", "assay": "MTT cytotoxicity on HEK293 cells", "assay_type": "cell-based, human", "conditions": "72 h, read-out: HEK293 LC50", "protocol": "as §1"}}, "note": "Like-named read-outs stand apart in the source and are kept apart here."}
{"smiles": "O=C1C(O)=C([C@H]2CC[C@H](c3ccc(Cl)cc3)CC2)C(=O)c2ccccc21", "note": "[Atovaquone]", "values": [{"measurement": "IC50", "setting": "[1]; Babesia duncani, Erythrocyte, read-out: IC50 of atovaquone, parental isolate WA1", "value": 0.072, "unit": "µM"}, {"measurement": "susceptibility of B. duncani", "setting": "[2]", "value": "low susceptibility"}]}
{"smiles": "NC(=O)C1=CN([C@@H]2O[C@H](COP(=O)(O)OP(=O)(O)OC[C@H]3O[C@@H](n4cnc5c(N)ncnc54)[C@H](OP(=O)(O)O)[C@@H]3O)[C@@H](O)[C@H]2O)C=CC1", "note": "[NADPH]", "values": [{"measurement": "Vmax", "setting": "[3]", "value": "10.1 ± 1.6", "unit": "μmol · min^-1 ×10^4"}, {"measurement": "kcat", "setting": "[3]", "value": "1.7 ± 0.3", "unit": "s⁻¹"}, {"measurement": "Km", "setting": "[3]; complementary ligand at 300 μM", "value": "27.3 ± 0.2", "unit": "µM"}, {"measurement": "Vmax", "setting": "[4]", "value": "9.8 ± 2.1", "unit": "μmol · min^-1 ×10^4"}, {"measurement": "kcat", "setting": "[4]", "value": "0.4 ± 0.1", "unit": "s⁻¹"}, {"measurement": "Km", "setting": "[4]; complementary ligand at 300 μM", "value": "32.9 ± 1", "unit": "µM"}]}
{"smiles": "CCc1nc(N)nc(N)c1-c1ccc(Cl)cc1", "note": "[Pyrimethamine]", "values": [{"measurement": "CC50 at 72 h", "setting": "[5]", "value": 1690, "unit": "µM"}, {"measurement": "IC50", "setting": "[1]; Babesia duncani, Erythrocyte, 60 h, read-out: B. duncani IC50", "value": "0.94 ± 0.017", "unit": "µM"}, {"measurement": "CC50 at 72 h", "setting": "[6]", "value": "> 900", "unit": "µM"}, {"measurement": "CC50 at 72 h", "setting": "[7]", "value": "> 30", "unit": "µM"}, {"measurement": "CC50 at 72 h", "setting": "[8]", "value": 500, "unit": "µM"}]}
{"smiles": "CC1(C)N=C(N)N=C(N)N1OCCCOc1cc(Cl)c(Cl)cc1Cl", "note": "[WR-99210]", "values": [{"measurement": "CC50", "setting": "[9]", "value": 1100, "unit": "µM"}, {"measurement": "TI (therapeutic index)", "setting": "[10]", "value": ">15", "unit": "K"}, {"measurement": "IC50", "setting": "[1]; read-out: B. duncani IC50", "value": 0.00058, "unit": "µM"}, {"measurement": "CC50", "setting": "[11]", "value": "> 900", "unit": "µM"}, {"measurement": "CC50", "setting": "[12]", "value": 1050, "unit": "µM"}, {"measurement": "IC50", "setting": "[13]", "value": 0.0039, "unit": "µM"}, {"measurement": "IC50", "setting": "[14]", "value": 0.0068, "unit": "µM"}, {"measurement": "CC50", "setting": "[15]", "value": 1000, "unit": "µM"}]}
{"smiles": "CC[C@H]1OC(=O)[C@H](C)[C@@H](O[C@H]2C[C@@](C)(OC)[C@@H](O)[C@H](C)O2)[C@H](C)[C@@H](O[C@@H]2O[C@H](C)C[C@H](N(C)C)[C@H]2O)[C@](C)(O)C[C@@H](C)CN(C)[C@H](C)[C@@H](O)[C@]1(C)O", "note": "[azithromycin]", "values": [{"measurement": "susceptibility of B. duncani", "setting": "[2]", "value": "low susceptibility"}]}
{"smiles": "CCC[C@@H]1C[C@@H](C(=O)N[C@@H]([C@H]2O[C@H](SC)[C@H](O)[C@@H](O)[C@H]2O)[C@H](C)Cl)N(C)C1", "note": "[clindamycin]", "values": [{"measurement": "susceptibility of B. duncani", "setting": "[2]", "value": "low susceptibility"}]}
{"smiles": "C=C[C@H]1C[N@@]2CC[C@H]1C[C@H]2[C@H](O)c1ccnc2ccc(OC)cc12", "note": "[quinine]", "values": [{"measurement": "susceptibility of B. duncani", "setting": "[2]", "value": "low susceptibility"}]}
